Assay results published in patent US20150218212A1, “FLUORINATED EPOXYKETONE-BASED TETRAPEPTIDE COMPOUNDS AND USES THEREOF AS PROTEASOME INHIBITORS” (FLUORINOV PHARMA INC., priority 2012, published 2015).

Columns and labels:
[1] = target: T1, proteasome Trypsin-like (T-L) activity (Mus musculus, UniProt P70195+Q9R1P1); test: Pharmacodynamic proteasome activity in murine red blood cells, T-L; type: in vivo, NOD/SCID mice; details: iv, mice, 2 mg/kg i.v., time 0, read-out: Trypsin-like (T-L) mean residual activity relative to vehicle treated controls
T1 construct: RBCs were lysed with assay lysis buffer and incubated on ice for 30 minutes; from tissue; host or cells: red blood cells of NOD/SCID mice
Protocol: Cells were harvested by centrifugation at 1,200 rpm at room temperature. Cell pellets were washed with PBS (phosphate buffered saline) and lysed with assay lysis buffer (50 mM HEPES (N-2-hydroxyethylpiperazine-N′-2-ethanesulfonic acid), pH 7.5; 150 mM NaCl; 1% Triton X-100; 2 mM ATP). Cell lysates were incubated on ice for 30 minutes, mixed by vortex every 5 minutes, and then centrifuged at 12,000 g for 10 minutes. The supernatant was transferred to a 96-well plate. For each assay, 10 μg of total protein were incubated for 1 hour at 37° C. with increasing concentrations (1 nM to 10 μM) of test compound diluted in assay buffer (50 mM tris-HCl (tris(hydroxymethyl)aminomethane-HCl), pH 7.5; 150 mM NaCl). DMSO alone was used as a control in every assay plate. After incubation, a specific fluorogenic proteasome substrate was added to each assay reaction at a final concentration of 40 μM in a total volume of 100 μL. N-Succinyl-Leu-Leu-Val-Tyr-7-amino-4-methylcoumarin (Suc-Leu-Leu-Val-Tyr-AMC) was used for measuring chymotrypsin-like (CT-L) activity, t-butoxycarbonyl-Leu-Arg-Arg-7-amino-4-methylcoumarin (Boc-Leu-Arg-Arg-AMC) for trypsin-like (T-L) activity, and benzyloxycarbonyl-L-leucyl-L-leucyl-L-glutamyl-7-amino-4-methylcoumarin (Z-Leu-Leu-Glu-AMC) for caspase-like (C-L) activity. The excitation wavelength was set at 360 nm and the fluorescence emission wavelength of AMC was detected at 460 nm. The fluorescence of free AMC released during the enzymatic reaction was measured with a SpectraMax M5 fluorescent spectrophotometric plate reader (Molecular Devices, Sunnyvale, Calif.). AMC release rate was measured at 37° C. in a kinetic mode, recording every 5 minutes for 30 minutes. Experiments were performed in triplicate and repeated at least twice.
All mouse experiments were performed in accordance with approval from the Ontario Cancer Institute institutional animal review board. Five- to six-week-old male non-obese diabetic/severe combined immunodeficient (NOD/SCID) mice were grouped randomly (n=3 mice per group). Mice were administered vehicle (5% DMSO, 20% Cremophor) or compounds of Formula I at different doses either intravenously or by oral gavage, and venous blood samples (20-50 μL) were collected from each mouse over 24 hours. Blood samples were mixed with heparin (APP Pharmaceuticals; Schaumburg, Ill.) in 0.5 mL tubes in accordance with the manufacturer's instructions. After centrifugal separation at 3,000 g for 10 minutes, red blood cells (RBCs) in the bottom layer were transferred into a new tube and stored at −70° C. until use. RBCs were lysed with assay lysis buffer and incubated on ice for 30 minutes, mixing by vortex every 5 minutes, and then centrifuged at 12,000 g for 10 minutes. The supernatant was transferred to a 96-well plate and proteasome activity was measured as described above for tumor cell lysates.
Proteasome subunit activity (Chymotrypsin-like, Trypsin-like, Caspase-like, CT-L, T-L, C-L, respectively) were monitored over the course of 24 hrs following […] administration of representative compounds of Formula I. NOD/SCID mice were treated with compounds of Formula I (2 mg/kg by iv administration) or vehicle control and carfilzomib for up to 24 hours, as described above. Table 9 summarizes the data on pharmacodynamic activity of representative compounds of Formula I following a dose of 2 mg/kg intravenous (i.v) administration to mice. Data are presented as mean residual activity (SEM) relative to vehicle treated controls.

SK-MEL-2 = test: NCI screening panel, SK-MEL-2 (Melanoma); type: cell-based, human
Protocol: Representative compounds of Formula I were screened using the National Cancer Institute (NCI) screening panel, which consists of a panel of human tumor cell lines, representing leukemia, melanoma, and cancers of the lung, colon, ovary, breast, prostate and renal system.
After 24 h, two plates of each cell line are fixed in situ with TCA, to represent a measurement of the cell population for each cell line at the time of drug addition (Tz). Experimental drugs are solubilised in dimethyl sulfoxide at 400-fold the desired final maximum test concentration and stored frozen prior to use. At the time of drug addition, an aliquot of frozen concentrate is thawed and diluted to twice the desired final maximum test concentration with complete medium containing 50 μg/mL gentamicin. Additional four, 10-fold or ½ log serial dilutions are made to provide a total of five drug concentrations plus control. Aliquots of 100 μl of these different drug dilutions are added to the appropriate microtiter wells already containing 100 μl of medium, resulting in the required final drug concentrations.
Following drug addition, the plates are incubated for an additional 48 h at 37° C., 5% CO2, 95% air, and 100% relative humidity. For adherent cells, the assay is terminated by the addition of cold TCA (trichloroacetic acid). Cells are fixed in situ by the gentle addition of 50 μl of cold 50% (w/v) TCA (final concentration, 10% TCA) and incubated for 60 minutes at 4° C. The supernatant is discarded, and the plates are washed five times with tap water and air dried. Sulforhodamine B (SRB) solution (100 μl) at 0.4% (w/v) in 1% acetic acid is added to each well, and plates are incubated for 10 minutes at room temperature. After staining, unbound dye is removed by washing five times with 1% acetic acid and the plates are air dried. Bound stain is subsequently solubilised with 10 mM trizma base, and the absorbance is read on an automated plate reader at a wavelength of 515 nm. For suspension cells, the methodology is the same except that the assay is terminated by fixing settled cells at the bottom of the wells by gently adding 50 μl of 80% TCA (final concentration, 16% TCA). Using the seven absorbance measurements [time zero, (Tz), control growth, (C), and test growth in the presence of drug at the five concentration levels (Ti)], the percentage growth is calculated at each of the drug concentrations levels. Percentage growth inhibition is calculated as: [(Ti−Tz)/(C−Tz)]×100 for concentrations for which Ti>/=Tz and [(Ti−Tz)/Tz]×100 for concentrations for which Ti<Tz.
Three dose response parameters are calculated for each experimental agent. Growth inhibition of 50% (GI50) is calculated from [(Ti−Tz)/(C−Tz)]×100=50, which is the drug concentration resulting in a 50% reduction in the net protein increase (as measured by SRB staining) in control cells during the drug incubation. The drug concentration resulting in total growth inhibition (TGI) is calculated from Ti=Tz. The LC50 (concentration of drug resulting in a 50% reduction in the measured protein at the end of the drug treatment as compared to that at the beginning) indicating a net loss of cells following treatment is calculated from [(Ti−Tz)/Tz]×100=−50. Values are calculated for each of these three parameters if the level of activity is reached. However, if the effect is not reached or is exceeded, the value for that parameter is expressed as greater or less than the maximum or minimum concentration tested.

In the case of `CC(C)C[C@H](NC(=O)[C@H](COC(F)F)NC(=O)CN1CCOCC1)C(=O)N[C@@H](COC(F)F)C(=O)N[C@@H](CC(C)C)C(=O)[C@@]1(C)CO1` [Example 1, (2S)—N-[(1S)-1-(difluoromethoxymethyl)-2-[[(1S)-3-methyl-1-[(2R)-2-methyloxirane-2-carbonyl]butyl]amino]-2-oxo-ethyl]-2-[[(2S)-3-(difluoromethoxy)-2-[(2-morpholinoacetyl)amino]propanoyl]amino]-4-methyl-pentanamide], the remaining activity at 2 mg/kg [1] is reported as 100%, the Log10GI50 (SK-MEL-2) is reported as −7.60 and the Log10LC50 (SK-MEL-2) is reported as >−4.00. The Log10TGI50 (SK-MEL-2) was −7.03.

In the case of `CC(C)C[C@H](NC(=O)[C@H](COC(F)F)NC(=O)CN1CCOCC1)C(=O)N[C@@H](Cc1ccccc1)C(=O)N[C@@H](CC(C)C)C(=O)[C@@]1(C)CO1` [Example 2, (2S)-N-[(1S)-1-benzyl-2-[[(1S)-3-methyl-1-[(2R)-2-methyloxirane-2-carbonyl]butyl]-amino]-2-oxo-ethyl]-2-[[(2S)-3-(difluoromethoxy)-2-[(2-morpholinoacetyl)amino]propanoyl]amino]-4-methyl-pentanamide], the remaining activity at 2 mg/kg [1] is reported as 100%, the Log10GI50 (SK-MEL-2) is reported as −7.66 and the Log10LC50 (SK-MEL-2) is reported as >−4.00. For the same compound, the Log10TGI50 (SK-MEL-2) was −7.06.

With `CC(C)C[C@H](NC(=O)[C@H](COC(F)F)NC(=O)CN1CCOCC1)C(=O)N[C@@H](Cc1ccccc1)C(=O)N[C@@H](Cc1ccccc1)C(=O)[C@@]1(C)CO1` [Example 3, (2S)-N-[(1S)-1-benzyl-2-[[(1S)-1-benzyl-2-[(2R)-2-methyloxiran-2-yl]-2-oxo-ethyl]amino]-2-oxo-ethyl]-2-[[(2S)-3-(difluoromethoxy)-2-[(2-morpholinoacetyl)-amino]propanoyl]amino]-4-methyl-pentan-amide] the remaining activity at 2 mg/kg [1] was 100%, the Log10GI50 (SK-MEL-2) was −7.92 and the Log10LC50 (SK-MEL-2) was >−4.00. It also gave a Log10TGI50 (SK-MEL-2) of −7.19.

`CC(C)C[C@H](NC(=O)[C@H](COC(F)F)NC(=O)CN1CCOCC1)C(=O)N[C@@H](COC(F)F)C(=O)N[C@@H](Cc1ccccc1)C(=O)[C@@]1(C)CO1` [Example 4, (2S)-N-[(1S)-2-[[(1S)-1-benzyl-2-[(2R)-2-methyloxiran-2-yl]-2-oxo-ethyl]amino]-1-(difluoromethoxymethyl)-2-oxo-ethyl]-2-[[(2S)-3-(difluoromethoxy)-2-[(2-mor-pholinoacetyl)amino]propanoyl]amino]-4 methyl-pentanamide] was tested, and the remaining activity at 2 mg/kg [1] was 100%, the Log10GI50 (SK-MEL-2) was −7.57 and the Log10LC50 (SK-MEL-2) was >−4.00. For the same compound, the Log10TGI50 (SK-MEL-2) was −6.86.

`CC(C)C[C@H](NC(=O)[C@H](COC(F)F)NC(=O)[C@H](COC(F)F)NC(=O)[C@H](CCc1ccccc1)NC(=O)CN1CCOCC1)C(=O)[C@@]1(C)CO1` [Example 7, (2S)-N-[(1S)-1-(difluoromethoxymethyl)-2-[[(1S)-1-(difluoromethoxymethyl)-2-[[(1S)-3-methyl-1-[(2R)-2-methyloxirane-2-carbo-nyl]butyl]amino]-2-oxo-ethyl]amino]-2-oxo-ethyl]-2-[(2-morpholinoacetyl)amino]-4-phenyl-butanamide] was tested, and the remaining activity at 2 mg/kg [1] was 100%, the Log10GI50 (SK-MEL-2) was −7.54 and the Log10LC50 (SK-MEL-2) was >−4.00. For the same compound, the Log10TGI50 (SK-MEL-2) was −6.86.

For `CC(C)C[C@H](NC(=O)[C@H](Cc1ccccc1)NC(=O)[C@H](COC(F)F)NC(=O)[C@H](COC(F)F)NC(=O)CN1CCOCC1)C(=O)[C@@]1(C)CO1` [Example 11, (2S)-2-[[(2S)-3-(difluoromethoxy)-2-[[(2S)-3-(difluoromethoxy)-2-[(2-morpholinoacetyl)-amino]propanoyl]amino]propanoyl]amino]-N-[(1S)-3-methyl-1-[(2R)-2-methyloxirane-2-carbonyl]butyl]-3-phenyl-propanamide], the remaining activity at 2 mg/kg [1] was 100%, the Log10GI50 (SK-MEL-2) was −7.48 and the Log10LC50 (SK-MEL-2) was >−4.00. The Log10TGI50 (SK-MEL-2) was −6.68.

With `CC(C)C[C@H](NC(=O)[C@H](COC(F)F)NC(=O)[C@H](COC(F)F)NC(=O)[C@H](COC(F)F)NC(=O)CN1CCOCC1)C(=O)[C@@]1(C)CO1` [Example 17, (2S)-3-(difluoromethoxy)-N-[(1S)-1-(difluoromethoxymethyl)-2-[[(1S)-1-(difluoro-methoxymethyl)-2-[[(1S)-3-methyl-1-[(2R)-2-methyloxirane-2-carbonyl]butyl]amino]-2-oxo-ethyl]amino]-2-oxo-ethyl]-2-[(2-mor-pholinoacetyl)amino]-propanamide] the remaining activity at 2 mg/kg [1] was 100%, the Log10GI50 (SK-MEL-2) was −7.27 and the Log10LC50 (SK-MEL-2) was −5.76. The Log10TGI50 (SK-MEL-2) was −6.60.
